Laboratory results taken from publication PMC11401813, “Grewiifopenes A–K, bioactive clerodane diterpenoids from Casearia grewiifolia Vent” (Natural Products and Bioprospecting, 2024).
Values after ≈ are worked out from the molar mass of the structure shown. Read-outs that look alike come from different tables or passages of the source.

Experiments:
[1] = system: Staphylococcus epidermidis (ATCC 12228); experiment: Antibacterial broth microdilution (MIC/MBC), S. epidermidis; assay type: cell-based; conditions: ATCC12228
Experimental: (§1) In addition, the isolates were also evaluated for their antibacterial activity towards three strains including Bacillus cereus (ATCC 11778), Staphylococcus aureus (ATCC 6538) and Staphylococcus epidermidis (ATCC 12228) using penicillin G and gentamicin as the antibiotic controls (Table 5). […] Finally, the inhibitory activity of aromatase by using a CYP19 screening kit was investigated. The aromatase (also called estrogen synthase) is responsible for converting the non-aromatic ring A of androgens to estrogens, which are related to the proliferation of breast cancer cells.
(§2) The tested strains, Staphylococcus aureus (S. aureus) ATCC6538, Staphylococcus epidermidis (S. epidermidis) ATCC12228, and Bacillus cereus (B. cereus) ATCC11778 were obtained from the American Type Culture Collection (ATCC).
(§3) All tested species were grown on Mueller Hinton Agar (MHA) and incubated at 37 °C for 18–24 h. The bacterial colonies suspension in sterile normal saline was diluted until they reached a 1 × 10^6 CFC/mL concentration, which was then compared to the McFarland scale. This step provided a standard bacterial suspension (1 × 10^6 CFU/mL), which was used for the following assays.
(§4) The broth microdilution technique was used for the MIC and MBC determination, which was expressed according to Clinical and Laboratory Standards Institute (CLSI) standard M07 guideline. The compounds were prepared as a stock solution by dissolving in dimethyl sulfoxide (DMSO) with the concentration ranging from 0.195 to 200 µg/mL. DMSO and penicillin G or gentamicin were used as normal and standard drug control. […] Three replicates were performed for each experiment.

[2] = system: HeLa (cervical carcinoma); experiment: Cytotoxicity, MTT assay, HeLa; assay type: cell-based, human; conditions: HeLa cell line, MTT, mean ± s.d. (n = 3); for IC50: read-out: IC50, HeLa
Experimental: (§5) The in vitro cytotoxicity assay toward a panel of human cancer cell lines of several clerodane diterpenoids has been well investigated. Thus, the isolates in adequate amounts were tested against MOLT-3 (acute lymphoblastic leukemia), HuCCA-1 (cholangiocarcinoma), HepG2 (hepatocellular carcinoma), A549 (lung adenocarcinoma), HeLa (cervical carcinoma), and MDA-MB-231 (triple negative breast cancer) cancer cell lines using the MTT and XTT methods. Doxorubicin and etoposide were used as positive controls.
(§6) The MTT (3-(4,5-dimethylthiazol-2-yl)-2,5-diphenyltetrazolium bromide) assay was employed for the cytotoxic evaluation against five human cancer cell lines, including HepG2, A549, MDA-MB-231, HeLa, and HuCCA-1, while the XTT (2,3-bis-(2-methoxy-4-nitro-5-sulphenyl)-(2H)-tetrazolium-5-carboxanilide) method was used for MOLT-3 cancer cell.

[3] = system: MOLT-3 (acute lymphoblastic leukemia); experiment: Cytotoxicity, XTT method, MOLT-3; assay type: cell-based; conditions: Homo sapiens; MOLT-3 cell line; XTT; mean ± s.d. (n = 3); read-out: IC50, MOLT-3
Experimental: as §5, §6

[4] = system: HepG2 (hepatocellular carcinoma); experiment: Cytotoxicity, MTT assay, HepG2; assay type: cell-based, human; conditions: MTT, mean ± s.d. (n = 3), read-out: IC50, HepG2
Experimental: as §5, §6

[5] = system: MDA-MB-231 (triple negative breast cancer); experiment: Cytotoxicity, MTT assay, MDA-MB-231; assay type: cell-based, human; conditions: MTT, mean ± s.d. (n = 3), read-out: IC50, MDA-MB-231
Experimental: as §5, §6

[6] = system: A549 (lung adenocarcinoma); experiment: Cytotoxicity, MTT assay, A549; assay type: cell-based, human; conditions: mean ± s.d. (n = 3)
Experimental: as §5, §6

[7] = system: Staphylococcus aureus (ATCC 6538); experiment: Antibacterial broth microdilution (MIC/MBC), S. aureus; assay type: cell-based; conditions: ATCC6538
Experimental: as §1, §2, §3, §4

[8] = system: Bacillus cereus (ATCC 11778); experiment: Antibacterial broth microdilution (MIC/MBC), B. cereus; assay type: cell-based; conditions: Bacillus cereus, ATCC11778
Experimental: as §1, §2, §3, §4

[9] = system: HuCCA-1 (cholangiocarcinoma); experiment: Cytotoxicity, MTT assay, HuCCA-1; assay type: cell-based, human; conditions: MTT, mean ± s.d. (n = 3), read-out: IC50, HuCCA-1
Experimental: as §5, §6

aromatase (CYP19) = biological target: T1, aromatase (CYP19) (Homo sapiens, UniProt P11511); experiment: Aromatase (CYP19) inhibition assay; assay type: biochemical
T1 construct: purchased
T1 sequence (P11511 1-503): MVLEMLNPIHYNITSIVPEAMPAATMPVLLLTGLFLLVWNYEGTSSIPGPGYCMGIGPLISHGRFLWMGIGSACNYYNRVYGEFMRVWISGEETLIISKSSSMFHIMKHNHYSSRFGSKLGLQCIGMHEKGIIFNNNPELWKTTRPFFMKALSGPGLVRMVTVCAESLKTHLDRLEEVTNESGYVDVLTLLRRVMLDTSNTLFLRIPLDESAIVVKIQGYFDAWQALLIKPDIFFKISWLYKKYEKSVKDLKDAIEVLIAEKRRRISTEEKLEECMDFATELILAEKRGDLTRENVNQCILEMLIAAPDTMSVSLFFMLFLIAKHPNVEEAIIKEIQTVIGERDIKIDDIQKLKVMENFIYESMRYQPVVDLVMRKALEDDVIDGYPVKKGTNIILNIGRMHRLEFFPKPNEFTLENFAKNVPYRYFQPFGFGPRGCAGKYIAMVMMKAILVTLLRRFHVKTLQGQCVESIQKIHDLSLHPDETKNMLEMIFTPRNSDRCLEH
Experimental: as §1
The aromatase assay used a method previously designed by Stresser and co-workers.

[10] = Homo sapiens, HepG2, HepG2 cell line
[11] = Homo sapiens, MDA-MB-231, MDA-MB-231 cell line
[12] = Homo sapiens, A549, A549 cell line
[13] = Homo sapiens, HuCC-A1, HuCCA-1 cell line

SMILES | MBC [1] | MIC [1] | IC50 ([2]; Homo sapiens, HeLa) | IC50 [3] | IC50 [4, 10] | IC50 [5, 11] | IC50 [6, 12] | MBC [7] | MIC [7] | MBC [8] | MIC [8] | IC50 [9, 13] | inhibition at 12.5 µM (aromatase (CYP19); at a concentration of 12.5 µM) | Aromatase inhibitory activity (in words) (aromatase (CYP19); at the concentration up to 12.15 µM) | IC50, HeLa [2] | IC50 [2] | IC50 ([9]; HuCCA-1 cell line) | IC50 ([4]; HepG2 cell line) | IC50 ([5]; MDA-MB-231 cell line) | IC50 ([6]; A549 cell line)
C=CC(=C)CC[C@]1(C)[C@H](C)[C@@H](OC(C)=O)[C@H](OC)[C@@]23C(=C[C@H](OC(=O)CC(C)C)C[C@@H]12)[C@@H](OC(C)=O)O[C@H]3OC(C)=O [Compound 2, Grewiifopene B] | > 200 µg/mL | > 200 µg/mL | 8.8 ± 0.9 µM | 2.7 ± 0.4 µM | 37.1 ± 4.1 µM | 9.3 ± 0.4 µM | 7.8 ± 0.5 µM | > 200 µg/mL | > 200 µg/mL | > 200 µg/mL | 100 µg/mL (≈ 169 µM) | 8.7 ± 1.1 µM |  |  |  |  |  |  |  | 
C=CC(=C)CC[C@]1(C)[C@H](C)C[C@H](OC)[C@@]23C(=C[C@H](OC(=O)[C@@H](C)CC)C[C@@H]12)[C@@H](OC(C)=O)O[C@H]3OC(C)=O [Compound 5, corymbulosin N] |  |  | 5.6 ± 0.3 µM | 3.4 ± 0.4 µM | 10 ± 0.5 µM | 8.7 ± 0.2 µM | 5 ± 0.9 µM |  |  |  |  | 5.3 ± 0.1 µM | 18% | did not show activity |  |  |  |  |  | 
C=CC(=C)CC[C@]1(C)[C@H](C)C[C@H](OC)[C@@]23C(=C[C@H](OC(=O)C(C)C)C[C@@H]12)[C@@H](OC(C)=O)O[C@H]3OC(C)=O [Compound 6, corymbulosin K] |  |  | 7.3 ± 0.3 µM | 3.2 ± 0.2 µM | 11.8 ± 1.1 µM | 10.2 ± 0.6 µM | 5.8 ± 0.8 µM |  |  |  |  | 5.6 ± 1.2 µM |  |  |  |  |  |  |  | 
C=CC(=C)CC[C@]1(C)[C@H](C)C[C@H](OC)[C@@]23C(=C[C@H](OC(=O)CC(C)C)C[C@@H]12)[C@@H](OC)O[C@H]3OC(C)=O [Compound 10, kurzipene A] | > 200 µg/mL | > 200 µg/mL | 10.7 ± 0.6 µM | 5 ± 1.4 µM | 13 ± 1 µM | 10.4 ± 0.2 µM | 8.2 ± 0.8 µM | > 200 µg/mL | > 200 µg/mL | 12.5 µg/mL (≈ 24.8 µM) | 12.5 µg/mL (≈ 24.8 µM) | 7.5 ± 0.2 µM |  |  |  |  |  |  |  | 
C=CC(=C)CCC1(C)C(C)C(OC(=O)C=Cc2ccc(O)cc2)C(O)C23C(=CC(OC(=O)CC(C)C)CC12)C(OC)OC3OC(C)=O (stereo not drawn) [Compound 13, Grewiifopene F] |  |  |  | 3.7 ± 1 µM | 44.2 ± 4.4 µM | 37 ± 5.1 µM | 30.6 ± 3.9 µM |  |  |  |  | 41.4 ± 6.1 µM |  |  | I^a (Inactive for cytotoxicity with < 50% inhibition at a concentration of 50 µg/mL) |  |  |  |  | 
C=CC(=C)CC[C@]1(C)[C@H](C)[C@@H](OC(=O)/C=C/c2ccc(O)cc2)[C@H](O)[C@@]23C(=C[C@H](OC(=O)CC(C)C)C[C@@H]12)[C@H](OC(C)=O)O[C@H]3OC(C)=O [Compound 14, Grewiifopene G] |  |  | 2.4 ± 0.2 µM | 1.3 ± 0.5 µM | 7.3 ± 0.6 µM | 2 ± 0.1 µM | 2.6 ± 0.1 µM |  |  |  |  | 1.8 ± 0.2 µM |  |  |  |  |  |  |  | 
C=CC(C)=CCC1(C)C(C)C(OC(C)=O)C(OC(C)=O)C23C(=CC(OC(=O)CC(C)C)CC12)C(OC(C)=O)OC3OC(C)=O (stereo not drawn) [Compound 15, Grewiifopene H] | > 200 µg/mL | > 200 µg/mL | 8.8 ± 0.6 µM | 3.1 ± 0.4 µM | 38.5 ± 2.8 µM | 9.1 ± 0.3 µM | 9.2 ± 1.2 µM | > 200 µg/mL | > 200 µg/mL | > 200 µg/mL | > 200 µg/mL | 6.6 ± 0.6 µM |  |  |  |  |  |  |  | 
C=CC(C)=CCC1(C)C(C)C(OC(=O)C=Cc2ccc(O)cc2)C(O)C23C(=CC(OC(=O)CC(C)C)CC12)C(OC(C)=O)OC3OC(C)=O (stereo not drawn) [Compound 17, Grewiifopene J] |  |  |  | 1 ± 0.1 µM | 7.1 ± 0.2 µM | 2 ± 0.1 µM | 2.4 ± 0.2 µM |  |  |  |  |  |  |  |  | 2.8 ± 0.03 µM | 0.4 ± 0.03 µM |  |  | 
C=CC(C)=CCC1(C)C(C)C(OC(=O)C=Cc2ccc(O)cc2)C(O)C23C(=CC(OC(=O)CC(C)C)CC12)C(OC(C)=O)OC3OC(C)=O (stereo not drawn) [Compound 18, Grewiifopene K] |  |  |  |  |  |  |  |  |  |  |  |  |  |  |  | 6.1 ± 0.3 µM | 1.6 ± 0.2 µM | 8.9 ± 1.2 µM | 2.5 ± 0.1 µM | 2.2 ± 0.2 µM
COc1cccc2c1C(=O)c1c(O)c3c(c(O)c1C2=O)C[C@@](O)(C(=O)CO)C[C@@H]3O[C@H]1C[C@H](N)[C@H](O)[C@H](C)O1 [Doxorubicin, reference compound] |  |  | 0.32 ± 0.01 µM | 0.01 ± 0.002 µM | 0.52 ± 0.1 µM | 2.09 ± 0.1 µM | 0.38 ± 0.02 µM |  |  |  |  | 0.83 ± 0.07 µM |  |  |  |  |  |  |  | 
COc1cc([C@@H]2c3cc4c(cc3[C@@H](O[C@@H]3O[C@@H]5CO[C@@H](C)O[C@H]5[C@H](O)[C@H]3O)[C@H]3COC(=O)[C@H]23)OCO4)cc(OC)c1O [Etoposide, reference compound] |  |  |  | 0.022 ± 0.004 µM | 33.5 ± 2.55 µM |  |  |  |  |  |  |  |  |  |  |  |  |  |  | 
CNC(C)C1CCC(N)C(OC2C(N)CC(N)C(OC3OCC(C)(O)C(NC)C3O)C2O)O1 (stereo not drawn) [Gentamicin, reference compound] | 0.024 µg/mL (≈ 0.0503 µM) | 0.024 µg/mL (≈ 0.0503 µM) |  |  |  |  |  | 0.024 µg/mL (≈ 0.0503 µM) | 0.024 µg/mL (≈ 0.0503 µM) | 0.048 µg/mL (≈ 0.101 µM) | 0.048 µg/mL (≈ 0.101 µM) |  |  |  |  |  |  |  |  | 
CC1(C)S[C@@H]2[C@H](NC(=O)Cc3ccccc3)C(=O)N2[C@H]1C(=O)O [Penicillin G, reference compound] | 1.56 µg/mL (≈ 4.67 µM) | 0.195 µg/mL (≈ 0.583 µM) |  |  |  |  |  | 0.003 µg/mL (≈ 0.00897 µM) | 0.00076 µg/mL (≈ 0.00227 µM) | 3.12 µg/mL (≈ 9.35 µM) | 3.12 µg/mL (≈ 9.35 µM) |  |  |  |  |  |  |  |  | 
